Experimental data reported in patent US10959968B2, “Methods for treating c-Met-dependent cancers” (Board of Supervisors of Louisiana State University and …, priority 2016, dated 2021).

Legend:
DU145 spheroids = assay: 3D spheroid growth, IncuCyte; type: cell-based, human; settings: 72 hours
Protocol: FIG. 9B: DU145 cells were grown in 10% FBS DMEM. Cells were collected after trypsinization and resuspended in phenol-red free DMEM with 10% FBS. Cells were labeled with Cell-Tracker Red (Life Technologies) for 5 minutes. After labeling cells were washed with PBS and transfer into 96-well Corning 7007 ULA round bottom plates at 1,000 cells/well in 100 μl phenol-red free media with 10% FBS and 5% Matrigel. […] Spheroids were grown at 37° C. and 5% CO2 in IncuCyte ZOOM (Essen Bioscience). Images were acquired every 4 h for a period of 72 h post-treatment and software analysis was design to identify the red object in the well. The data were expressed as fold increase in spheroids size at the end of the treatment using the “average red object area in the well” as determined by the IncuCyte software analysis. FIG. 9C: Visually representative spheroids that are quantitated in FIG. 9B.
To determine the effectiveness of these compounds under 3D growth conditions which more accurately predict effectiveness of new drugs in humans, DU145 spheroids were formed and allowed to grow for 72 hours. Images were recorded every 4 hours using the Incucyte platform. […] Compounds 9 and 10, at 10 micromolar reduced spheroid growth by about 50 percent (not shown).

[1] = test system: MDA-MB-231 breast cancer cells; assay: Western blot of c-Met downstream mitogenic and FAK/Brk/paxillin/Rac1 signaling; type: cell-based, human
Protocol: FIG. 5. Effects of HVS treatment on c-Met downstream mitogenic and FAK/Brk/paxillin/Rac1 signaling pathways in human MDA-MB-231 breast cancer cells after a treatment period of 72 h. (A) Western Blot analysis showing HVS treatment effects on c-Met downstream mitogenic signaling molecules, Akt and MAPK, using different treatment doses, compared to the vehicle-treated control group. (B) Western Blot analysis showing HVS treatment effects on FAK/Brk/Paxillin/Rac1 signaling pathway using different treatment doses, compared to the vehicle-treated control group. The visualization of β-tubulin was used as a loading control. Representative Western Blots from each experiment are shown, N=3.
On the other hand, HVS had little or no effects on the total levels of FAK, Brk, paxillin, and Rac1 in treated cells. Exposure to antiproliferative concentrations of 8 blocked HGF-induced phosphorylation and activation of Akt and MAPK in MDA-MB-231 mammary cancer cells (FIG. 5). Activation of c-Met prevents apoptosis and maintains cancer cell survival through activation of PI3K and subsequent Akt-NFκB activation.

TYRO3 (RSE) = TYRO3 (RSE) (Homo sapiens, UniProt Q06418); assay: SelectScreen Kinase Profiling; type: biochemical; settings: read-out: Mean inhibition at 10 μM of HVS (%)
Chain of TYRO3 (RSE) (Q06418 41-890): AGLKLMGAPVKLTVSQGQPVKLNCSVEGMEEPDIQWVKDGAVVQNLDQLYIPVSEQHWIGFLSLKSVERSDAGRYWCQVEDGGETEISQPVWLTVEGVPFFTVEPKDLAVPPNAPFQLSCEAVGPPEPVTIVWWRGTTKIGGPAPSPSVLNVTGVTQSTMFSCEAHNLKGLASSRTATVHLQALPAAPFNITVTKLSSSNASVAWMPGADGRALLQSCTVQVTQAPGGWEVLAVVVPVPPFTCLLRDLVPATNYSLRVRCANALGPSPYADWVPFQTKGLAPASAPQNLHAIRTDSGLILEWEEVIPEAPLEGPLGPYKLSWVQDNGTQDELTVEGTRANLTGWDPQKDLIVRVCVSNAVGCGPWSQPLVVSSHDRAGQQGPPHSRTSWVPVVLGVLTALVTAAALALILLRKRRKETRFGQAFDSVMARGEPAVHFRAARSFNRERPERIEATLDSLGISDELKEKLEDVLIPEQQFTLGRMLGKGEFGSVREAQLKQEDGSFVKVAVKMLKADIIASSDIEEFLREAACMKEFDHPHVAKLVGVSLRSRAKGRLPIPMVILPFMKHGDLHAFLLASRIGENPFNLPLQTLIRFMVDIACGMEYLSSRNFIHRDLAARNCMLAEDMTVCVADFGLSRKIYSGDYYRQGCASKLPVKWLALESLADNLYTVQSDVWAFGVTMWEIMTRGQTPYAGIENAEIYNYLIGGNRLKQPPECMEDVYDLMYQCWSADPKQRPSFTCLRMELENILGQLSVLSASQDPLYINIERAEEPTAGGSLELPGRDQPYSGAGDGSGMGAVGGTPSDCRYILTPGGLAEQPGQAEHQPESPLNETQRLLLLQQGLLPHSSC

[2] = test system: c-Met phosphorylation in MDA-MB-231, MCF-7, and BT-474 mammary tumor cells; assay: Western blot of HGF-induced c-Met activation in breast cancer cells; type: cell-based, human
Protocol: FIG. 4. A) Effect of HVS treatment on HGF-induced c-Met activation in human breast cancer cells using Western Blot analysis. […] The visualization of β-tubulin was used as a loading control. (B) Effect of HVS on HGF-induced c-Met activation and its downstream mitogenic signaling in DU145 human prostate cancer cells, as compared to vehicle-treated control group, using Western Blot analysis. Cells were pre-treated for 30 minutes with either HVS at 0.1, 0.3, 1, and 5 μM or (−)-oleocanthal at 5, 10, and 20 μM doses in serum-free 0.4-media. 33 ng/mL HGF was then added for 30 minutes. Whole cell lysates were collected and assayed by Western Blot. The visualization of α-tubulin was used as a loading control. Representative Western Blots from each experiment are shown, N=3.
Activation of c-Met prevents apoptosis and maintains cancer cell survival through activation of PI3K and subsequent Akt-NFκB activation.

[3] = test system: T-47D breast cancer cells; assay: HGF-stimulated growth of Met-independent cells, MTT assay; type: cell-based, human; settings: similar treatment doses; 72 h
Protocol: FIG. 3. (A) Effect of HVS treatment on HGF-stimulated growth of Met-dependent MDA-MB-231, MDA-MB-468, MCF-7. and BT-474 breast cancer cells after 72 h treatment period, compared to DMSO as vehicle control. Viable cell count was determined using MTT assay. Vertical bars indicate the mean cell count±SEM of N=3 in each treatment group; (−)-oleocanthal was used as a positive control at 20 μM. (B) Effect of HVS treatment on HGF-stimulated growth of Met-independent T-47D breast cancer cells after 72 h treatment period. Viable cell count was determined using MTT assay. Vertical bars indicate the mean cell count±SEM of N=3 in each treatment group. (C) Cytotoxic effects of HVS on the highly metastatic MDA-MB-231 breast cancer cells at two different concentrations (30 and 60 μM) using LDH cytotoxicity assay. Triton X-100 was used as a positive control to cause the breakdown of all the cells and induce the total possible LDH release. (D) Effects of HVS treatment on the viability of non-tumorigenic human MCF10A mammary epithelial cells after a 24 h treatment period, compared to DMSO as vehicle control. (E) As in panel (A) but without HGF. […] Viable cell count was determined using MTT assay. Vertical bars indicate the mean cell count±SEM of N=3 in each treatment group; doxorubicin was used as a positive control at 10 μM dose. *P<0.05 as compared with vehicle treated control.
[…]. […]

MDA-MB231 spheroids = assay: 3D spheroid growth, IncuCyte; type: cell-based, human; settings: Homo sapiens, MDA-MB-231, 10 micromolar, up to 72 hours
Protocol: FIG. 9. (A). MDA-MB231 cells were grown in 10% FBS DMEM. Cells were collected after trypsinization and resuspended in phenol-red free DMEM with 10% FBS. Cells were labeled with CellTracker Red (Life Technologies) for 5 minutes. After labeling cells were washed with PBS and transfer into 96-well Corning 7007 ULA round bottom plates at 1,000 cells/well in 100 μl phenol-red free media with 10% FBS and 5% Matrigel. […] Spheroids were grown at 37° C. and 5% CO2 in IncuCyte ZOOM (Essen Bioscience). Images were acquired every 4 h for a period of 72 h post-treatment. The data were expressed as fold increase in spheroids size at the end of the treatment using the “average red object area in the well” as determined by the IncuCyte software analysis.
MDA-MB231 spheroids were all allowed to form and treated with compounds for up to 72 hours. Images were captured using the Incucyte platform.

## COc1cc(CCOC(=O)/C=C/c2cc(OC)c(O)c(OC)c2)ccc1O [Compound 8, (E)-4-hydroxy-3-methoxyph-ethyl 3-(4-hydroxy-3,5-dimethoxyphenyl) acrylate]
DU145 spheroids; 10 micromolar
  reduction of spheroid growth: over 80%
DU145 spheroids
  lowest concentration blocking spheroid growth: ≤ 1 µM
[1]; 72-h treatment
  FAK, Brk, paxillin and Rac1 phosphorylation (activation): dose-dependently suppressed
[1]; antiproliferative concentrations
  HGF-induced phosphorylation and activation of Akt and MAPK: blocked
TYRO3 (RSE)
  inhibition at 10 µM: 21%
[2]; 72 h treatment
  HGF-induced c-Met phosphorylation: significant inhibition
[2]; at the tested concentrations
  total c-Met levels: did not affect
[3]
  effect on T47-D cells which lack c-Met: no discernable effects
MDA-MB231 spheroids
  inhibition at 10 µM: 80%
